Assay results reported in ChEMBL document CHEMBL1201862, “PubChem BioAssay data set” (2004).
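Briefly, cells in 96-well plates were exposed to five compound concentrations for 48 h, and endpoints were estimated by linear interpolation. GI50 marks 50% less growth.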 Calls of active or inactive are those of the source. Cut-off read from the data, not from the text of the source: active = GI50 up to about 1.1 µM and inactive = higher.

Experiments:
Assay in all cases: NCI-60 cell line screen, 48 h
A498 = system: A498
A549 = system: A549
COLO 205 = system: COLO 205
HOP-62 = system: HOP-62
IGROV-1 = system: IGROV-1
K562 = system: K562
LOX IMVI = system: LOX IMVI
MOLT-4 = system: MOLT-4
NCI-H226 = system: NCI-H226
SF-295 = system: SF-295
SF-539 = system: SF-539
SK-MEL-2 = system: SK-MEL-2
SK-MEL-5 = system: SK-MEL-5
SNB-75 = system: SNB-75
UACC-257 = system: UACC-257
CAKI-1 = system: CAKI-1
SF-268 = system: SF-268
SK-MEL-28 = system: SK-MEL-28

Measured: GI50

C[P+](C)(CC(F)(F)F)c1ccccc1
inactive: A498 > 100 µM | A549 > 100 µM | COLO 205 > 100 µM | HOP-62 > 100 µM | IGROV-1 > 100 µM | K562 > 100 µM | LOX IMVI > 100 µM | MOLT-4 > 100 µM | NCI-H226 > 100 µM | SF-295 > 100 µM | SF-539 > 100 µM | SK-MEL-2 > 100 µM | SK-MEL-5 > 100 µM | SNB-75 > 100 µM | UACC-257 > 100 µM

COc1cc2c(cc1OC)c1c(OC)c(OC)cc3c1c1c2sc(=S)n1CC3
inactive: A498 > 100 µM | A549 > 100 µM | CAKI-1 > 100 µM | COLO 205 > 100 µM | IGROV-1 > 100 µM | K562 21.6 µM | LOX IMVI 31.5 µM | MOLT-4 30.7 µM | NCI-H226 > 100 µM | SF-268 28.7 µM | SF-295 > 100 µM | SF-539 48.3 µM | SK-MEL-28 46.9 µM | SK-MEL-2 > 100 µM | SK-MEL-5 41.5 µM | SNB-75 74.6 µM | UACC-257 > 100 µM

COc1ccc(C2C(Cl)C(=O)N2n2cnc3ccccc3c2=O)cc1OC (configuration not stated)
inactive: A549 > 100 µM | CAKI-1 > 100 µM | COLO 205 > 100 µM | HOP-62 > 100 µM | IGROV-1 74.1 µM | K562 > 100 µM | LOX IMVI > 100 µM | MOLT-4 82.4 µM | NCI-H226 30.5 µM | SF-268 85.7 µM | SF-295 > 100 µM | SK-MEL-28 68.7 µM | SK-MEL-2 > 100 µM | SK-MEL-5 > 100 µM | SNB-75 21.5 µM | UACC-257 32 µM

CNC(=O)CN(CC(=O)O)C(=O)NC
inactive: A498 > 100 µM | A549 > 100 µM | CAKI-1 > 100 µM | COLO 205 > 100 µM | HOP-62 > 100 µM | IGROV-1 > 100 µM | K562 > 100 µM | LOX IMVI > 100 µM | MOLT-4 > 100 µM | SF-268 > 100 µM | SF-295 > 100 µM | SF-539 > 100 µM | SK-MEL-2 > 100 µM | SK-MEL-5 > 100 µM | SNB-75 > 100 µM | UACC-257 > 100 µM

COc1ccc(/C=C2\CCC(C)(CN(C)C)C2=O)cc1OC (configuration not stated)
inactive: A498 > 100 µM | A549 > 100 µM | CAKI-1 > 100 µM | COLO 205 > 100 µM | HOP-62 > 100 µM | IGROV-1 > 100 µM | K562 > 100 µM | LOX IMVI > 100 µM | MOLT-4 > 100 µM | NCI-H226 > 100 µM | SF-268 > 100 µM | SF-295 > 100 µM | SF-539 > 100 µM | SK-MEL-28 > 100 µM | SK-MEL-2 > 100 µM | SK-MEL-5 > 100 µM | SNB-75 > 100 µM | UACC-257 > 100 µM

OC(c1ccccc1)(c1ccccc1)c1cccnc1
inactive: A498 > 100 µM | A549 > 100 µM | CAKI-1 > 100 µM | COLO 205 > 100 µM | HOP-62 > 100 µM | IGROV-1 > 100 µM | K562 > 100 µM | LOX IMVI > 100 µM | NCI-H226 > 100 µM | SF-268 > 100 µM | SF-295 > 100 µM | SF-539 > 100 µM | SK-MEL-28 > 100 µM | SK-MEL-2 > 100 µM | SK-MEL-5 > 100 µM | SNB-75 86.1 µM | UACC-257 > 100 µM

C#CC1/C(=C\C(=O)OC)CCCC1O (configuration not stated)
inactive: A498 > 100 µM | A549 > 100 µM | CAKI-1 > 100 µM | COLO 205 > 100 µM | HOP-62 > 100 µM | IGROV-1 > 100 µM | K562 > 100 µM | MOLT-4 > 100 µM | NCI-H226 > 100 µM | SF-268 > 100 µM | SF-295 > 100 µM | SF-539 > 100 µM | SK-MEL-2 > 100 µM | SK-MEL-5 > 100 µM | SNB-75 > 100 µM | UACC-257 > 100 µM

CC(C)N1CN(C(C(=O)N[C@@H]2C(=O)N3C2SC(C)(C)C3C(=O)O)c2ccccc2)CSC1=S (some centres not stated)
inactive: A498 > 100 µM | CAKI-1 > 100 µM | COLO 205 46.9 µM | HOP-62 > 100 µM | IGROV-1 > 100 µM | K562 30.6 µM | LOX IMVI 83.9 µM | MOLT-4 > 100 µM | SF-268 > 100 µM | SF-295 > 100 µM | SF-539 > 100 µM | SK-MEL-28 > 100 µM | SK-MEL-2 > 100 µM | SK-MEL-5 > 100 µM | SNB-75 > 100 µM | UACC-257 > 100 µM

COc1ccc2n[se]nc2c1
inactive: A549 45.5 µM | CAKI-1 > 100 µM | COLO 205 > 100 µM | IGROV-1 38.9 µM | K562 > 100 µM | LOX IMVI > 100 µM | MOLT-4 > 100 µM | SF-268 > 100 µM | SF-295 32 µM | SF-539 23.1 µM | SK-MEL-28 > 100 µM | SK-MEL-2 41.5 µM | SK-MEL-5 50.1 µM | SNB-75 64.1 µM | UACC-257 54.6 µM

C/C(O[Si](C(C)C)(C(C)C)C(C)C)=C(\C)C(=O)N(C)c1ccccc1Cl
inactive: A498 > 100 µM | A549 > 100 µM | CAKI-1 > 100 µM | COLO 205 > 100 µM | HOP-62 > 100 µM | IGROV-1 > 100 µM | LOX IMVI > 100 µM | MOLT-4 > 100 µM | NCI-H226 > 100 µM | SF-268 > 100 µM | SF-295 > 100 µM | SF-539 > 100 µM | SK-MEL-28 > 100 µM | SK-MEL-5 > 100 µM | SNB-75 81.5 µM | UACC-257 > 100 µM

O=[N+]([O-])C(/C=N/Nc1ccccc1)/C=N/Nc1ccccc1
inactive: A498 > 100 µM | A549 > 100 µM | CAKI-1 > 100 µM | COLO 205 > 100 µM | HOP-62 > 100 µM | IGROV-1 > 100 µM | K562 > 100 µM | LOX IMVI > 100 µM | MOLT-4 > 100 µM | NCI-H226 > 100 µM | SF-268 > 100 µM | SF-295 > 100 µM | SF-539 > 100 µM | SK-MEL-28 > 100 µM | SK-MEL-2 > 100 µM | SK-MEL-5 > 100 µM | SNB-75 > 100 µM | UACC-257 > 100 µM

N#CCN1CCOCCOCCN(CC#N)CCOCCOCC1
inactive: A498 > 100 µM | A549 > 100 µM | CAKI-1 > 100 µM | COLO 205 > 100 µM | HOP-62 > 100 µM | IGROV-1 > 100 µM | K562 > 100 µM | LOX IMVI > 100 µM | MOLT-4 > 100 µM | NCI-H226 > 100 µM | SF-268 > 100 µM | SF-295 > 100 µM | SF-539 > 100 µM | SK-MEL-28 > 100 µM | SK-MEL-5 > 100 µM | SNB-75 > 100 µM | UACC-257 > 100 µM

O=C(CSc1nnc(Cc2ccccc2)o1)Nc1ccc(Cl)cc1
inactive: A498 46.8 µM | A549 > 100 µM | CAKI-1 59.2 µM | COLO 205 > 100 µM | HOP-62 > 100 µM | IGROV-1 92 µM | K562 87.7 µM | LOX IMVI > 100 µM | MOLT-4 > 100 µM | NCI-H226 86.5 µM | SF-295 66.8 µM | SF-539 > 100 µM | SK-MEL-28 > 100 µM | SK-MEL-2 82 µM | SK-MEL-5 57.8 µM | SNB-75 67.8 µM | UACC-257 > 100 µM

COc1cc(OC)c2c(=O)c3c([N+](=O)[O-])cccc3n(C)c2c1
inactive: A498 > 100 µM | A549 > 100 µM | CAKI-1 > 100 µM | COLO 205 > 100 µM | HOP-62 > 100 µM | IGROV-1 > 100 µM | K562 > 100 µM | LOX IMVI > 100 µM | MOLT-4 > 100 µM | NCI-H226 > 100 µM | SF-268 > 100 µM | SF-295 > 100 µM | SF-539 > 100 µM | SK-MEL-28 > 100 µM | SK-MEL-2 > 100 µM | SK-MEL-5 > 100 µM | SNB-75 > 100 µM | UACC-257 > 100 µM

O=C(O)CN(c1ccccc1)S(=O)(=O)c1ccccc1[N+](=O)[O-]
inactive: A498 > 100 µM | A549 > 100 µM | CAKI-1 > 100 µM | COLO 205 > 100 µM | IGROV-1 > 100 µM | K562 > 10 µM | LOX IMVI > 100 µM | MOLT-4 > 100 µM | NCI-H226 > 100 µM | SF-268 > 100 µM | SF-295 > 100 µM | SF-539 > 100 µM | SK-MEL-28 > 100 µM | SK-MEL-2 > 100 µM | SK-MEL-5 > 100 µM | SNB-75 > 100 µM | UACC-257 > 100 µM

CC(=O)Oc1cc2c(cc1OC(C)=O)C1(C)CCC2(C)c2cc(OC(C)=O)c(OC(C)=O)cc21
inactive: A549 34 µM | CAKI-1 8.55 µM | COLO 205 51.4 µM | HOP-62 21.6 µM | IGROV-1 26.7 µM | K562 5.6 µM | LOX IMVI 12.6 µM | MOLT-4 8.2 µM | SF-268 19.2 µM | SF-295 24.5 µM | SK-MEL-28 21.4 µM | SK-MEL-2 16.7 µM | SK-MEL-5 22.6 µM | SNB-75 4.92 µM | UACC-257 11.3 µM

CN1CCN(CN2C(=O)C3C4C=CC(C3C2=O)C2C3C(=O)N(CN5CCN(C)CC5)C(=O)C3C42)CC1 (configuration not stated)
inactive: A498 93.1 µM | A549 32.4 µM | COLO 205 17.5 µM | HOP-62 70 µM | IGROV-1 34.2 µM | K562 26.9 µM | LOX IMVI 17.9 µM | MOLT-4 22.2 µM | SF-268 25.3 µM | SF-539 22.2 µM | SK-MEL-28 23.5 µM | SK-MEL-5 17 µM | SNB-75 27.4 µM
